# The source made the active and inactive calls.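 How the source made its calls: active means fitted curve reaches 200% activation at or below the highest valid dose tested for that compound; inconclusive means flat fit between 30 and 70% activation, or unreliable fit; inactive means the rest.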
# Target: Endoplasmic reticulum aminopeptidase 2 (Homo sapiens) (UniProt Q6P179)
# Assay: ERAP2 activation by compounds, dose response, selectivity assay for selective ERAP1 modulator project, biochemical, fluorescence plate reader, cherry-picked samples (AID 743319)
# Conditions: recombinant ERAP2, Arg-AMC cleavage fluorescence, 1 h; for activation: at 11 µM (top of the series)
# Sequence of Endoplasmic reticulum aminopeptidase 2 (Homo sapiens) (Q6P179 whole entry, looked up): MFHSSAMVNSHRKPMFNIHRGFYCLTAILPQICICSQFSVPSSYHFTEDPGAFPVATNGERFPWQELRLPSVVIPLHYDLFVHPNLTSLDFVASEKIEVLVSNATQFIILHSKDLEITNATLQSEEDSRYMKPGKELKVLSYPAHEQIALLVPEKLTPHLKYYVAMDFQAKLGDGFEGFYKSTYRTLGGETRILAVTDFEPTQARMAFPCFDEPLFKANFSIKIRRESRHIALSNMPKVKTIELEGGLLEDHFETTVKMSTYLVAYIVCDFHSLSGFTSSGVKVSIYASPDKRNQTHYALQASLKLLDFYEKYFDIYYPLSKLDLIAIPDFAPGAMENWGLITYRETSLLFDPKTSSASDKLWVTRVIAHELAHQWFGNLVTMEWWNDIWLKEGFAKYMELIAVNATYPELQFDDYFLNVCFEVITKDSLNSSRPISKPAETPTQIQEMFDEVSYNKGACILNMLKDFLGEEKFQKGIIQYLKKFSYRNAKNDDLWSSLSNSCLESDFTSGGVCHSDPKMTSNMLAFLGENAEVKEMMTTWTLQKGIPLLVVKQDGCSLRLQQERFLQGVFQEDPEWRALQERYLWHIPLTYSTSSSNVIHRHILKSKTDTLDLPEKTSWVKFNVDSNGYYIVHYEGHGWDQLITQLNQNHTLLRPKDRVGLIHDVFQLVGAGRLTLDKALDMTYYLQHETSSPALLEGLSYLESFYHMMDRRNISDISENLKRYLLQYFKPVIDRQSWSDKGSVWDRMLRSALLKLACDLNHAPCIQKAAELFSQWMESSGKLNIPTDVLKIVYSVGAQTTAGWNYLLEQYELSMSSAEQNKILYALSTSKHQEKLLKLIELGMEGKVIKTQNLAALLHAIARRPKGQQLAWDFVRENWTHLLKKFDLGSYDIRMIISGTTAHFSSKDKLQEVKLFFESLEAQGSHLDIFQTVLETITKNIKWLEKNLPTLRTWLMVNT
activation,AC200 [nM],SMILES
–,1830,CCNC(=O)[C@H]1[C@H](CO)[C@H]2Cn3c(ccc(/C=C/c4ccccc4)c3=O)[C@@H]1N2C(=O)C1CCCC1
-16.1% (inactive),–,C[C@H]1CN([C@@H](C)CO)C(=O)c2cccc(NC(=O)Nc3ccc(C(F)(F)F)cc3)c2O[C@@H]1CN(C)CC1CC1
19.4% (inactive),–,CCCNC(=O)C[C@H]1CC[C@@H]2[C@H](COC[C@H](O)CN2C(=O)Nc2cccc(Cl)c2)O1

# More lines, now with the values behind:
SMILES,activation,AC200 [nM]
O=C(C[C@H]1CC[C@H]2[C@@H](COC[C@@H](O)CN2C(=O)Nc2cccc(Cl)c2)O1)N1CCCCC1,8.71% (inactive),–
CC1CN(Cc2cc(=O)oc3cc(O)c(Cl)cc23)CC(C)O1 (stereo not given),–,2520

# Source: PubChem BioAssay AID743319 (Broad Institute, 2014)
